Experimental findings from patent US9765092B2, “Tricyclic piperidine compounds” (ACTELION PHARMACEUTICALS LTD, priority 2013, dated 2017) are described below.

The experiment has as its target human TPH1 (Homo sapiens (Human), UniProt P17752). The experiment can be described thus: Biochemical in vitro assay using fluorescence readout (TPH1 inhibition).
The mark [1] stands for this setting: human TPH1, fluorescence readout.
[2] abbreviates: full length human TPH1, 40 μM L-tryptophan, 15° C., 60 minutes, fluorescence at 540 nm, mean if determined several times.

pIC50: −log10 of the molar value.

Sequence of human TPH1 (P17752 whole entry): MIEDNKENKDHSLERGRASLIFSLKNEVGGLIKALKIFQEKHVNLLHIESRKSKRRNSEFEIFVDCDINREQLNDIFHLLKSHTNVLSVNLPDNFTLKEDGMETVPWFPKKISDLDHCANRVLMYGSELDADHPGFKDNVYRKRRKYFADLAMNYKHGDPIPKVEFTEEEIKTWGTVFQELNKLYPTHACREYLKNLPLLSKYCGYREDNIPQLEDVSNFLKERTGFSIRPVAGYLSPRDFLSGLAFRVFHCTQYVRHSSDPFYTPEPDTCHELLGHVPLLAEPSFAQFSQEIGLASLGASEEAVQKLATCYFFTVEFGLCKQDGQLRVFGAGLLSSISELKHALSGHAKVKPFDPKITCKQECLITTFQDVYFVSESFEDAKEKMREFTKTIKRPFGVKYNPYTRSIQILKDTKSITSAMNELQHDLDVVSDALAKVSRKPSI

In turn, `CCc1nc(C)ccc1OCC(=O)N1CCc2nc3sc(C)nn3c2C1c1cnc(C2CC2)nc1C` (centres unmarked) [Example 1.10.3, 1-(5-(2-cyclopropyl-4-methylpyrimidin-5-yl)-2-methyl-7,8-dihydro-[1,3,4]thiadiazolo[2′,3′:2,3]imidazo[4,5-c]pyridin-6(5H)-yl)-2-((2-ethyl-6-methylpyridin-3-yl)oxy)ethanone] showed a pIC50 under setting [1] of 7.42.

`Cc1nn2c3c(nc2s1)CCN(C(=O)COc1ccc(-c2ncco2)nc1Cl)C3c1ccc(Cl)cc1F` (centres unmarked) [Example 1.4.47, 1-(5-(4-chloro-2-fluorophenyl)-2-methyl-7,8-dihydro-[1,3,4]thiadiazolo[2′,3′:2,3]imidazo[4,5-c]pyridin-6(5H)-yl)-2-((2-chloro-6-(oxazol-2-yl)pyridin-3-yl)oxy)etha-none] had a pIC50 under setting [1] of 8.00.

On to `O=C(COc1cccc(C(F)(F)F)c1Cl)N1CCc2nc3sccn3c2C1c1nc2ccccc2s1` (centres unmarked) [Example 6.12.5, 1-(5-(benzo[d]thiazol-2-yl)-7,8-dihydrothiazolo-[2′,3′:2,3]imidazo[4,5-c]pyridin-6(5H)-yl)-2-(2-chloro-3-(trifluoromethyl)phenoxy)ethanone], for which, under setting [1], the pIC50 was 7.55.

The compound `Cc1ccc(C2c3c(nc4sccn34)CCN2C(=O)COc2ccc(Cl)cc2C)c(F)c1` (centres unmarked) [Example 6.10.1, 2-(4-chloro-2-methylphenoxy)-1-(5-(2-fluoro-4-methyl-phenyl)-7,8-dihydrothiazolo[2′,3′:2,3]imidazo[4,5-c]-pyridin-6(5H)-yl)ethanone] had a pIC50 under setting [1] of 8.30.

`Cc1nn2c3c(nc2s1)CCN(C(=O)COc1ccnc2c(F)ccc(F)c12)C3c1ccc(Cl)cc1F` (centres unmarked) [Example 1.4.65, 1-(5-(4-chloro-2-fluorophenyl)-2-methyl-7,8-dihydro-[1,3,4]thiadiazolo[2′,3′:2,3]imidazo[4,5-c]pyridin-6(5H)-yl)-2-((5,8-difluoroquinolin-4-yl)oxy)ethan-1-one]: the negative-log IC50 (pIC50) under setting [1] was 7.51.

As to `Cc1nc(C)c(C2c3c(nc4sc(C)nn34)CCN2C(=O)COc2ccc(N3CCCS3(=O)=O)nc2Cl)s1` (centres unmarked) [Example 1.68.5, 2-((2-chloro-6-(1,1-dioxidoisothiazolidin-2-yl)pyridin-3-yl)oxy)-1-(5-(2,4-dimethylthiazol-5-yl)-2-methyl-7,8-dihydro-[1,3,4]thiadiazolo[2′,3′:2,3]imidazo[4,5-c]pyridin-6(5H)-yl)ethanone], the pIC50 under setting [1] was 8.30.

Compound `Cc1nn2c3c(nc2s1)CCN(C(=O)COc1ccc(C(=O)N(C)C)nc1Cl)[C@H]3c1sc(C(=O)N(C)C)cc1F` [Example 1.24.11] gave a pIC50 under setting [1] of 8.40.

On to `Cc1nn2c3c(nc2s1)CCN(C(=O)COc1cccnc1C)C3c1ccc(C2CC2)cc1F` (centres unmarked) [Example 1.6.6, 1-(5-(4-cyclopropyl-2-fluorophenyl)-2-methyl-7,8-dihydro-[1,3,4]thiadiazolo[2′,3′:2,3]imidazo[4,5-c]pyridin-6(5H)-yl)-2-((2-methylpyridin-3-yl)oxy)ethanone], for which, under setting [1], the pIC50 is 7.60.

On to `CCc1nc(N2CCCS2(=O)=O)ccc1OCC(=O)N1CCc2nc3sc(CF)nn3c2C1c1sc(C)nc1C` (centres unmarked) [Example 7.4.3, 1-(5-(2,4-dimethylthiazol-5-yl)-2-(fluoromethyl)-7,8-dihydro-[1,3,4]thiadiazolo[2′,3′:2,3]imidazo[4,5-c]pyridin-6(5H)-yl)-2-((6-(1,1-dioxidoisothiazolidin-2-yl)-2-ethylpyridin-3-yl)oxy)ethanone], for which the pIC50 under setting [1] was 8.10.

`Cc1nn2c3c(nc2s1)CCN(C(=O)COc1ccc(N2CCOCC2)nc1Cl)C3c1nc(C(=O)O)cs1` (centres unmarked) [Example 1.41.1, 2-(6-(2-((2-chloro-6-morpholinopyridin-3-yl)oxy)acetyl)-2-methyl-5,6,7,8-tetrahydro-[1,3,4]thiadiazolo[2′,3′:2,3]imidazo[4,5-c]pyridin-5-yl)thiazole-4-carboxylic acid] had a pIC50 under setting [2] of 7.19.

Under setting [1], `Cc1nn2c3c(nc2s1)CCN(C(=O)COc1ccc(C(=O)N(C)C)nc1Cl)C3c1cccc(Cl)c1F` (centres unmarked) [Example 1.58.1, 6-chloro-5-(2-(5-(3-chloro-2-fluorophenyl)-2-methyl-7,8-dihydro-[1,3,4]thiadiazolo[2′,3′:2,3]imidazo[4,5-c]pyridin-6(5H)-yl)-2-oxoethoxy)-N,N-dimethylpicolinamide] had a pIC50 of 7.38.

Take `O=C(COc1ccc(-c2ncco2)nc1Cl)N1CCc2nc3scnn3c2C1c1ccc(Cl)cc1F` (centres unmarked) [Example 2.1.3]: the pIC50 under setting [1] was 8.10.

`Cc1nn2c3c(nc2s1)CCN(C(=O)C1(Oc2ccc(NS(C)(=O)=O)nc2Cl)CC1)C3c1ccc(Cl)cc1F` (centres unmarked) [Example 1.4.54, N-(6-chloro-5-(1-(5-(4-chloro-2-fluorophenyl)-2-methyl-5,6,7,8-tetrahydro-[1,3,4]thiadiazolo[2′,3′:2,3]imidazo[4,5-c]pyridine-6-carbonyl)cyclopropoxy)pyridin-2-yl)methanesulfonamide] showed a pIC50 under setting [1] of 7.43.

Regarding `Cc1nn2c3c(nc2s1)CCN(C(=O)COc1ccc(N2CCC(F)(F)C2)nc1Cl)C3c1ccc(Cl)cc1F` (centres unmarked) [Example 1.4.37, 1-(5-(4-Chloro-2-fluorophenyl)-2-methyl-7,8-dihydro-[1,3,4]thiadiazolo[2′,3′:2,3]imidazo[4,5-c]pyridin-6(5H)-yl)-2-((2-chloro-6-(3,3-difluoropyrrolidin-1-yl)pyridin-3-yl)oxy)ethanone], the pIC50 under setting [2] is 8.52.

In the case of `Cc1cnc([C@H]2c3c(nc4sc(C)nn34)CCN2C(=O)COc2ccc(N3CCCS3(=O)=O)nc2Cl)c(F)c1` [Example 1.31.17, (R)-2-((2-chloro-6-(1,1-dioxidoisothiazolidin-2-yl)pyridin-3-yl)oxy)-1-(5-(3-fluoro-5-methylpyridin-2-yl)-2-methyl-7,8-dihydro-[1,3,4]thiadiazolo[2′,3′:2,3]imidazo[4,5-c]pyridin-6(5H)-yl)ethanone], the pIC50 under setting [1] was 8.10.

`CCN(CC)C(=O)c1cc(F)c(C2c3c(nc4sc(C)nn34)CCN2C(=O)COc2ccc(NS(C)(=O)=O)nc2Cl)s1` (centres unmarked) [Example 1.64.1, 5-(6-(2-((2-chloro-6-(methylsulfonamido)pyridin-3-yl)oxy)acetyl)-2-methyl-5,6,7,8-tetrahydro-[1,3,4]thiadiazolo [2′,3′:2,3]imidazo[4,5-c]pyridin-5-yl)-N,N-diethyl-4-fluorothiophene-2-carboxamide]: under setting [1], the pIC50 is 7.68.

In turn, `Cc1nn2c3c(nc2s1)CCN(C(=O)COc1ccc(C(F)(F)F)nc1Cl)C3c1sc(C(=O)N(C)C)cc1F` (centres unmarked) [Example 1.24.2, 5-(6-(2-((2-chloro-6-(trifluoromethyl)pyridin-3-yl)oxy)acetyl)-2-methyl-5,6,7,8-tetrahydro-[1,3,4]thiadiazolo [2′,3′:2,3]imidazo[4,5-c]pyridin-5-yl)-4-fluoro-N,N-dimethylthiophene-2-carboxamide] had a pIC50 under setting [1] of 7.66.

With `Cc1nn2c3c(nc2s1)CCN(C(=O)COc1ccc(C(N)=O)cc1Cl)C3c1ccc(Cl)cc1F` (centres unmarked) [Example 1.4.26, 3-Chloro-4-(2-(5-(4-chloro-2-fluorophenyl)-2-methyl-7,8-dihydro-[1,3,4]thiadiazolo[2′,3′:2,3]imidazo[4,5-c]pyridin-6(5H)-yl)-2-oxoethoxy)benzamide], under setting [2], the pIC50 was 8.00.

Regarding `Cc1nc(C)c(C2c3c(nc4sc(C)nn34)CCN2C(=O)COc2ccc(N3CCOCC3)nc2Cl)o1` (centres unmarked) [Example 1.66.1, 2-((2-chloro-6-morpholinopyridin-3-yl)oxy)-1-(5-(2,4-dimethyloxazol-5-yl)-2-methyl-7,8-dihydro-[1,3,4]thiadiazolo [2′,3′:2,3]imidazo[4,5-c]pyridin-6(5H)-yl)ethanone], the pIC50 under setting [1] was 7.89.

`CCc1nc(N2CCCS2(=O)=O)ccc1OCC(=O)N1CCc2nc3sc(C(F)(F)F)nn3c2[C@@H]1c1ccc(Cl)cc1F` [Example 5.1.4] had a pIC50 under setting [1] of 8.15.

For `Cc1noc(C)c1C1c2c(nc3sccn23)CCN1C(=O)COc1ccc(C(F)(F)F)cc1Cl` (centres unmarked) [Example 6.5.3, 2-(2-chloro-4-(trifluoromethyl)phenoxy)-1-(5-(3,5-di-methylisoxazol-4-yl)-7,8-dihydrothiazolo[2′,3′:2,3]-imidazo[4,5-c]pyridin-6(5H)-yl)ethanone], the pIC50 under setting [1] is 7.07.

`CS(=O)(=O)Nc1ccc(OCC(=O)N2CCc3nc4sc(C(F)F)nn4c3C2c2ccc(Cl)cc2F)c(Cl)n1` (centres unmarked) [Example 8.1.1, N-(6-chloro-5-(2-(5-(4-chloro-2-fluorophenyl)-2-(difluoromethyl)-7,8-dihydro-[1,3,4]thiadiazolo-[2′,3′:2,3]imidazo[4,5-c]pyridin-6(5H)-yl)-2-oxoethoxy)pyridin-2-yl)methanesulfonamide] gave a pIC50 under setting [1] of 7.72.

`Cc1nn2c3c(nc2s1)CCN(C(=O)COc1ccc(NS(=O)(=O)N(C)C)nc1Cl)C3c1ccc(Cl)cc1F` (centres unmarked) [Example 1.4.50, N-(6-chloro-5-(2-(5-(4-chloro-2-fluorophenyl)-2-methyl-7,8-dihydro-[1,3,4]thiadiazolo[2′,3′:2,3]imidazo[4,5-c]pyridin-6(5H)-yl)-2-oxoethoxy)pyridin-2-yl)-N′,N′-dimethyl-sulfamide] gave a negative logarithm of the IC50 (pIC50) under setting [1] of 7.11.

As for `Cc1nn2c3c(nc2s1)CCN(C(=O)COc1ccc(NS(=O)(=O)C2CC2)nc1Cl)C3c1sccc1F` (centres unmarked) [Example 1.23.9, N-(6-chloro-5-(2-(5-(3-fluorothiophen-2-yl)-2-methyl-7,8-dihydro-[1,3,4]thiadiazolo[2′,3′:2,3]imidazo[4,5-c]pyridin-6(5H)-yl)-2-oxoethoxy)pyridin-2-yl)cyclopropanesulfonamide], the pIC50 under setting [1] is 7.85.

The compound `Cc1ccc(C2c3c(nc4sccn34)CCN2C(=O)COc2cccnc2Cl)c(F)c1` (centres unmarked) [Example 6.10.3, 2-((2-chloropyridin-3-yl)oxy)-1-(5-(2-fluoro-4-methyl-phenyl)-7,8-dihydrothiazolo[2′,3′:2,3]imidazo[4,5-c]-pyridin-6(5H)-yl)ethanone] had a pIC50 under setting [1] of 7.85.

With `Cc1nn2c3c(nc2s1)CCN(C(=O)COc1ccc(N(C)CC(F)(F)F)nc1Cl)C3c1ncc(C2CC2)cc1F` (centres unmarked) [Example 1.14.10, 2-((2-chloro-6-(methyl(2,2,2-trifluoroethyl)amino)pyridin-3-yl)oxy)-1-(5-(5-cyclopropyl-3-fluoropyridin-2-yl)-2-methyl-7,8-dihydro-[1,3,4]thiadiazolo[2′,3′:2,3]imidazo[4,5-c]pyridin-6(5H)-yl)ethanone], the pIC50 under setting [1] was 8.40.

What is called pIC50 is the IC50 on a negative log10 scale, so that one unit is a factor of ten. Low values mean a large IC50, high ones a small IC50.
